Molecules are shown by their SMILES. Where a name gives a salt, the structure may show the parent alone.

Assay [1] has as its system oxazolone-induced delayed-type hypersensitivity (DTH). Description: Oxazolone-induced delayed-type hypersensitivity (DTH) in mice. In kind it is in vivo. The note with it: for Inflammation/Ear thickness (mm), Challenge 1 / Inflammation/Ear thickness (mm), Challenge 2: intravenous, 50 mg/kg day 0, 1 and 2; for Inflammation/Ear thickness (mm), Challenge 1: first challenge day 3; for Inflammation/Ear thickness (mm), Challenge 2: second challenge day 10. The procedure: Compounds were tested for their ability to treat oxazolone-induced delayed-type hypersensitivity (DTH) in mice. On day 0, mice were sensitized with 100 μL of oxazolone in 5% acetone. On day 0, 1 and 2, mice were treated by intravenous administration of the vehicle (control) or methotrexate (MTX; positive control) or the compound at 50 mg/kg. Mice were challenged with an application of 50 μL of oxazolone on the surface of the right ear (first challenge, day 3; second challenge, day 10). Ear thickness was measured on day 4 to day 7, and on day 11 to 14. Redness and crust formation was also observed. Mice were sacrificed on day 14. TDTH (CD4) cells play an important role in regulating the intensity of the DTH response.
The effect of oral administration of compound 1 was determined following the protocol described above with the exception that compound 1 was orally administered at 50 or 150 mg/kg from day 0 to day 13. The positive control was hydrocortisone.

Assay [2] deals with LPS-induced TNFα production in J774A-1 cells. Description: LPS-induced TNFα production in J774A-1 cells, TNFα by ELISA. The assay is classed as cell-based. The conditions noted are these: Mus musculus, J774.A1, 24 h, read-out: IC50 (μM), concentration which inhibits 50% of TNFα production. How it is done:
The effect of compounds on TNFα production was measured by ELISA using J774-1 cells stimulated by lipopolysaccharide (LPS). J774-1 cells were cultured in the presence or absence of LPS and compound. Cells were cultured at 37° C. for 24 h and thereafter the supernatants were collected for the determination of the concentration of TNFα by ELISA as recommended by the manufacturer (BD Biosciences). Data was analyzed in a MICROSOFT® EXCEL® spreadsheet and the concentration of compound which inhibits 50% of TNFα production (IC50) was calculated using PRISM® software, as shown in Table 2.
For orientation: An ELISA detects its analyte on a solid surface through an enzyme-linked reagent.

In assay [3] the test system is Freund's adjuvant-induced arthritis (AIA). Kind of assay: Freund's adjuvant-induced arthritis (AIA) in female Lewis rats. In kind it is in vivo. How it is done: AIA was induced in female Lewis rats by the injection of lyophilized Mycobacterium butyricum suspended in mineral oil into the footpad. The development of arthritis was monitored over a 3 week period post-adjuvant injection. Inflammation peaks at day 3 following the adjuvant administration. Immune activation appears around day 14. Compounds were injected i.v. day-3, -2 and -1 pre-adjuvant injection and at day 10, 11 and 12 post-adjuvant injection. Body weight was recorded. The arthritis index, which is a measure of inflammation (edema), redness, and stiffness of the articulations, was used to monitor the development of the disease. The degree of arthritis was determined by measuring two perpendicular diameters of the ankles in the mediolateral and dorsoventral planes using a caliper. Joint circumference in millimeters is then calculated using a geometric formula. Both the incidence and severity of the arthritis was evaluated. Incidence is defined as the number of rats with clinical evidence of joint inflammation during the study period.
The effect of oral administration of compound 1 was determined following the protocol described above with the exception that compound 1 was orally administered at 50 mg/kg from day-3 to day 19. The positive control was indomethacin.

The target in the next assay is T1, Fc portion of human IgG.
T1 construct: fused on or other part: Horseradish peroxidase chemically conjugated to the IgG (detection label)
Description: Competitive protein A binding ELISA (inhibition of binding of protein A to human IgG). The conditions noted are these: HRP-human IgG, assay in PBS, read-out: IC50 (μM) Assay in PBS, concentration which inhibits 50% binding of protein A. How it is done:
As described above, this assay evaluates the ability of the exemplified compounds to mimic protein A. Such compounds can bind to the Fc portion of human IgG as ascertained by the inhibition of binding of protein A to human IgG. The competitive protein A binding ELISA assay was performed on a 96-well plate MAXISORP® surface to enhance the binding of protein A to the bottom of the plate. The wells were coated with 100 μL of protein A (0.8 μg) and incubated overnight at 4° C. After incubation, unbound protein A was removed by three washes with phosphate buffer saline (PBS). The plate was then incubated with 100 μL/well of a 2% solution of bovine serum albumin (BSA) for 1 h at 37° C. to block nonspecific protein binding. After incubation, the plate was washed three times with PBS. 50 μL of compound or protein A, diluted in PBS or PBS-20% DMSO at appropriate concentration, were added to the wells followed by addition of 50 μL of peroxidase-conjugated human IgG (HRP-IgG). After 1 h incubation at 37° C., the plate was washed three times with PBS to remove unbound HRP-IgG. Bound HRP-IgG was detected by incubation with 100 μL of 2,2′-azino-di[3-ethylbenzthiazoline sulfonate] diammonium salt crystals (ABTS) solution for 20 min in the dark at room temperature. The plate was then read at 405 nm on a BIO-TEK® EL 800 Universal Microplate Reader. Data was analyzed in a MICROSOFT® EXCEL® spreadsheet and the concentration of compound which inhibits 50% binding of protein A (IC50) was calculated using PRISM® software, as shown in Table 1.

Consider `Nc1ccc(CCn2cnc3c(Nc4cccc(N)c4)ncnc32)cc1` [Compound 1, N-{9-[2-(4-aminophenyl)ethyl]-9H-purin-6-yl}benzene-1,3-diamine dihydrochloride], for which, in assay [1] (intravenous administration), the “potency compared to methotrexate in DTH” value was “equipotent to methotrexate”; the “redness, crust formation, and ear swelling” value is on record as “reduces”; the “reduction of the inflammation as seen by lower ear thickness” value is on record as “significant reduction”. In assay [1], the “Inflammation/Ear thickness (mm), Challenge 1” value stood at 0.19 ± 0.06 mm and the “Inflammation/Ear thickness (mm), Challenge 2” value is 0.56 ± 0.12 mm. Moreover, the “reduction of the inflammation as seen by lower ear thickness” value in assay [1] (oral, 50 or 150 mg/kg day 0 to day 13, challenges 1 and 2, FIG. 1) is given as “significant reduction”. Besides, the IC50 in assay [2] is above 100 µM. In assay [3] (intravenous injection, FIG. 2), the “reduction in the severity of arthritis (inflammatory index)” value (shortened to “reduction … (inflammatory index)”) is reported as “up to 25%”. In assay [3] (oral administration, FIG. 3), the “reduction … (inflammatory index)” value is on record as 10-30%. The IC50 at Fc portion of human IgG stood at 1 µM.
Take `Nc1ccc(CCn2cnc3c(Nc4cccc(N)c4)nc(N)nc32)cc1` [Compound 2, N6-(3-Amino-phenyl)-9-[2-(4-amino-phenyl)-ethyl]-9H-purine-2,6-diamine]: the figures for the IC50 (in assay [2]; at Fc portion of human IgG) were 76 µM and 13 µM, respectively.
Turning to `Nc1ccc(CCn2cnc3c(Nc4cccc(N)c4)nc(NCC4CC4)nc32)cc1` [Compound 3, N6-(3-Amino-phenyl)-9-[2-(4-amino-phenyl)-ethyl]-N2-cyclopropylmethyl-9H-purine-2,6-diamine], the figures for the IC50 (in assay [2]; on Fc portion of human IgG) were above 50 µM and 0.7 µM, respectively.
The like results for `Nc1ccc(CCn2cnc3c(Nc4cccc(N)c4)nc(NCCCCCCO)nc32)cc1` [Compound 4, 6-{6-(3-Amino-phenylamino)-9-[2-(4-amino-phenyl)-ethyl]-9H-purin-2-ylamino}-hexan-1-ol] were, in that order, above 50 µM and 4.8 µM.
Turning to `Nc1ccc(CCn2cnc3c(Nc4cccc(N)c4)nc(NC4CC4)nc32)cc1` [Compound 5, N6-(3-Amino-phenyl)-9-[2-(4-amino-phenyl)-ethyl]-N2-cyclopropyl-9H-purine-2,6-diamine], the IC50 in assay [2] was determined as 9.2 µM; on Fc portion of human IgG, 13 µM.
Taken in the same sequence, the figures for `CC(C)(C)Nc1nc(Nc2cccc(N)c2)c2ncn(CCc3ccc(N)cc3)c2n1` [Compound 6, N6-(3-Amino-phenyl)-9-[2-(4-amino-phenyl)-ethyl]-N2-tert-butyl-9H-purine-2,6-diamine] were 2.3 µM and 1.8 µM.
Consider `Nc1ccc(Cn2cnc3c(Nc4cccc(N)c4)ncnc32)cc1` [Compound 7, N-[9-(4-Amino-benzyl)-9H-purin-6-yl]-benzene-1,3-diamine], for which the IC50 is above 100 µM in assay [2] and 0.2 µM at Fc portion of human IgG.
The like results for `Nc1ccc(CCn2cnc3c(Nc4cccc(N)c4)nc(NCCO)nc32)cc1` [Compound 8, 2-{6-(3-Amino-phenylamino)-9-[2-(4-amino-phenyl)-ethyl]-9H-purin-2-ylamino}-ethanol] were, in that order, 11 µM and 64 µM.
The like results for `Nc1cccc(Nc2nc(F)nc3c2ncn3CCc2ccc(OCc3ccccc3)cc2)c1` [Compound 9, N-{9-[2-(4-Benzyloxy-phenyl)-ethyl]-2-fluoro-9H-purin-6-yl}-benzene-1,3-diamine] were, in that order, above 50 µM and 7.1 µM.
In the case of `CC(C)(C)CNc1nc(Nc2cccc(N)c2)c2ncn(CCc3ccc(N)cc3)c2n1` [Compound 10, N6-(3-Amino-phenyl)-9-[2-(4-amino-phenyl)-ethyl]-N2-(2,2-dimethyl-propyl)-9H-purine-2,6-diamine], the IC50 in assay [2] stood at 5.3 µM; at Fc portion of human IgG it was 6 µM.
The like results for `CC(C)CNc1nc(Nc2cccc(N)c2)c2ncn(CCc3ccc(N)cc3)c2n1` [Compound 11, N6-(3-Amino-phenyl)-9-[2-(4-amino-phenyl)-ethyl]-N2-isobutyl-9H-purine-2,6-diamine] were, in that order, 11 µM and 22 µM.
For the molecule `Nc1cccc(CCn2cnc3c(Nc4cccc(N)c4)ncnc32)c1` [Compound 12, N-{9-[2-(3-Amino-phenyl)-ethyl]-9H-purin-6-yl}-benzene-1,3-diamine], the results for the IC50 (in assay [2]; on Fc portion of human IgG) were above 50 µM and 52 µM, respectively.
On to `Nc1ccc(CCn2cnc3c(Nc4cccc(N)c4)nc(NC4CCCC4)nc32)cc1` [Compound 13, N6-(3-Amino-phenyl)-9-[2-(4-amino-phenyl)-ethyl]-N2-cyclopentyl-9H-purine-2,6-diamine], for which the IC50 in assay [2] worked out at 6.2 µM; on Fc portion of human IgG it was 0.2 µM.
On to `Nc1cccc(Nc2ncnc3c2ncn3CCc2ccc(F)cc2)c1` [Compound 14, N-{9-[2-(4-Fluoro-phenyl)-ethyl]-9H-purin-6-yl}-benzene-1,3-diamine], for which the IC50 in assay [2] was above 50 µM; on Fc portion of human IgG, 0.6 µM.
Consider `CN(Cc1cnc2nc(N)nc(N)c2n1)c1ccc(C(=O)N[C@@H](CCC(=O)O)C(=O)O)cc1` [Methotrexate, methotrexate, reference compound], for which, in assay [1], the “Inflammation/Ear thickness (mm), Challenge 1” value worked out at 0.17 ± 0.04 mm and the “Inflammation/Ear thickness (mm), Challenge 2” value was found to be 0.46 ± 0.17 mm. The “reduction … (inflammatory index)” value in assay [3] (intravenous injection, FIG. 2) turned out to be 20%.
Turning to `COc1ccc2c(c1)c(CC(=O)O)c(C)n2C(=O)c1ccc(Cl)cc1` [indomethacin, reference compound], the “reduction … (inflammatory index)” value in assay [3] (oral administration, FIG. 3) is reported as 10-40%.

Source of the values: patent publication US8080555B2, “Purine derivatives and their use for treatment of autoimmune diseases” (Prometic Biosciences Inc., priority 2005, dated 2011).
